Measurements from patent US20260014184A1, “ADENOSINE DERIVATIVES FOR USE IN THE TREATMENT OF NEURODEGENERATIVE DISORDERS AND CANCER” (UNIVERSITY COLLEGE CARDIFF CONSULTANTS LIMITED, priority 2022, published 2026).

Key:
TcPINK1 = target: T1, TcPINK1 (Tribolium castaneum, UniProt D6WMX4); assay: PINK1 in vitro kinase assay with parkin or ubiquitin as substrates; type: biochemical; conditions: increasing concentrations, max 100 μM; human parkin or ubiquitin as substrates
T1 construct: purchased MRC PPU Reagents and Services (University of Dundee, U.K.)
T1 sequence (D6WMX4 6-570): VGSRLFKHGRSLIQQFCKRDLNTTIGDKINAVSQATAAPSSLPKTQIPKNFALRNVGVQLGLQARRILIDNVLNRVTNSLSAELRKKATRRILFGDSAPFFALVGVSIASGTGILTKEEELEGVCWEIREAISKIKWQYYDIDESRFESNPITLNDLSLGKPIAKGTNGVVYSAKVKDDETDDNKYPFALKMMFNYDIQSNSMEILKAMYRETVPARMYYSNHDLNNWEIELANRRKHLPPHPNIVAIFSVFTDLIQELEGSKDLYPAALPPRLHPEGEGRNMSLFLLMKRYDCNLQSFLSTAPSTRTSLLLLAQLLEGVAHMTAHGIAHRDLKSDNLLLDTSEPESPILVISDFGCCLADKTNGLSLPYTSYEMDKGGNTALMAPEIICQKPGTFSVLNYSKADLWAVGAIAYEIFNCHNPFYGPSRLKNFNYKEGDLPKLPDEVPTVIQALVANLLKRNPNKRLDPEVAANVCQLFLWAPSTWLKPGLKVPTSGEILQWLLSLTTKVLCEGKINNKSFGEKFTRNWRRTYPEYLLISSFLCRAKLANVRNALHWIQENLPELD
Protocol: This assay was carried out by the MRC PPU Reagents and Services (University of Dundee, U.K.). The assay was conducted as follows: TcPINK1 (5-20mU diluted in 50 mM Tris pH 7.5, 0.1 mM EGTA, 1 mg/ml BSA, 0.1% mercaptoethanol) is assayed against GST PARK2 TV3 or Ubiquitin-His in a final volume of […] containing 50 mM Tris pH 7.5, 0.1 mM EDTA, 10 mM DTT, protein substrate (0.3 mg/ml of GST PARK2 TV3 or 1 mg/ml of Ubiquitin-His, 10 mM magnesium acetate and 0.1 mM [33P-γ-ATP](50-1000 cpm/pmole) in the presence of the relevant small molecule (serial dilution with the highest concentration being 100 μM) and incubated for 30 min at room temperature. Assays are stopped by addition of 5 μl of 0.5 M (3%) orthophosphoric acid and then harvested onto P81 Unifilter plates with a wash buffer of 50 mM orthophosphoric acid.
To examine this further, we ran in vitro kinase assays employing recombinant and constitutively active Tribolium castaneum PINK1 (TcPINK1) and either human parkin or ubiquitin as substrates in the presence of increasing concentrations (max 100 μM) of kinetin riboside, benzyladenosine 9c or its triphosphate derivative (FIG. 6). […]

PINK1 [1] = target: T2, PINK1 (Homo sapiens, UniProt Q9BXM7); assay: PINK1 activation in cells judged by parkin Ser65 phosphorylation (parkin-transfected HeLa cells); type: cell-based; conditions: 50 μM, 1 h
T2 construct: HeLa cells, which express PINK1 endogenously; endogenous in cells; host or cells: HeLa cells transiently transfected with parkin
T2 sequence (Q9BXM7 78-581): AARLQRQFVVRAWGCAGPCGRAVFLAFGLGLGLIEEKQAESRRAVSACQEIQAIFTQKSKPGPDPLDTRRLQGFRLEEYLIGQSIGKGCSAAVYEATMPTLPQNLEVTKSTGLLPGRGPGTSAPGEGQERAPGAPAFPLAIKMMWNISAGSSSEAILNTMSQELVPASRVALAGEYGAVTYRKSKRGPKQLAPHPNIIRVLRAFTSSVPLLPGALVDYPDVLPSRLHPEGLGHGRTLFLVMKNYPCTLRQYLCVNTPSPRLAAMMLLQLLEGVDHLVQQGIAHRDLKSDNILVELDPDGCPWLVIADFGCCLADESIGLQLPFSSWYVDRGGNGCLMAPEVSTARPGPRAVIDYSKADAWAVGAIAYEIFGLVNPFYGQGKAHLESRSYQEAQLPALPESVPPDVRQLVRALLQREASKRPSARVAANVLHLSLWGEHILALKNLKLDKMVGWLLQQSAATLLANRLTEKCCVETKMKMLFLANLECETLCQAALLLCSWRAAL
Protocol: (§1) Both HeLa and parkin-overexpressed HeLa cells were maintained in DMEM high glucose (Gibco), 10% FBS (Sigma-Aldrich) at 37° C. with 5% CO2. For experiments, cells were counted and seeded into a range of culture plates, depending on the experiment, cell counting was done using the Cellometer Auto T4 with TrypanBlue (Gibco). […] Alternatively, HeLa cells were seeded in well plates and then transfected with […] of parkin cDNA using the PEI method once the plated cells reached 60% confluency. After 6 hours, the media was changed. Sub-culturing was done when the cells reached ˜90% confluency.
(§2) Cell culture with 70-80% confluency was lysed as follows: cells were washed with Phosphate Buffer Saline (PBS) (Sigma). 150 μl of lysis buffer was used on each well containing either: • 50 mM Tris-HCl pH 7.5, 1 mM EDTA, 1 mM EGTA, 0.27 M sucrose, 1 mM Na3VO4, 50 mM NaF, 5 mM Na pyrophosphate and fresh 1 mM benzamidine, 1% NP-40 and […]; or • 50 mM Tris-HCl pH 7.5, 1 mM EDTA, 1 mM EGTA, 10 mM Na β-glycerophosphate, 0.27 M sucrose, 1 mM Na3VO4, 50 mM NaF, 10 mM Na pyrophosphate with fresh 1 mM benzamidine, 1% Triton X-100, complete EDTA-free Protease Inhibitor, Phosphatase inhibitor cocktail 3 and 100 μM of 2-chloroacetamide.
(§3) The cells were scrapped and transferred to the microtube and eventually spun down at 12,000 rpm for 15 minutes at 4° C. Finally, the supernatant was transferred to the new microtubes and stored at −20° C. Protein concentration was measured using Bradford Assay. Serial concentrations 0.125; 0.25; 0.5 and 1 mg/ml of Bovine Serum Albumin (BSA) (Sigma Aldrich) were used as a standard. Samples were boiled at 90° C. for 5 minutes in SDS sample loading buffer.

[2] = tested on: ubiquitin Ser65 phosphorylation; assay: Ubiquitin Ser65 phosphorylation in astrocytes with or without valinomycin; type: cell-based
Protocol: Briefly, astrocytes were treated with 50 μM of the nucleobase kinetin, nucleosides 9a and 9c or DMSO for 24 h and 5 h prior to lysis, the samples were treated with 50 nM valinomycin, a mitochondrial uncoupler.

PINK1 [3] = target: T2, PINK1; conditions: evidenced by parkin Ser65 phosphorylation; cited from earlier work
[4] = tested on: HeLa cells transfected with YFP-parkin; assay: TMRM fluorescence (mitochondrial membrane potential); type: cell-based; conditions: pre-treatment 50 μM 24 h; data not shown
Protocol: For assessing tetramethylrhodamine methyl ester perchlorate (TMRM) fluorescence, cell media was removed and replaced with cell media consisting of 5 nM TMRM (ThermoFisher) and 10 μg/ml Hoechst 33258 stain for 30 mins in the dark at 37° C. to allow incorporation of TMRM into mitochondria. Following PBS washes, FluoroBrite DMEM (Gibco) media was added to cells, followed by subsequent imaging using a Zeiss LSM800 microscope at 37° C. with 5% CO2.

OPA1 = OPA1 cleavage immunoblot (mitochondrial membrane depolarization) in parkin-transfected HeLa cells; type: cell-based; conditions: 50 μM 24 h, then 10 μM CCCP 3 h
Protocol: as §1, §2, §3
To explore this, we first treated parkin-transfected HeLa cells for 24 h with 50 μM kinetin, kinetin riboside or kinetin riboside ProTide, a monophosphate prodrug of kinetin riboside.

OC[C@H]1O[C@@H](n2cnc3c(NCc4ccccc4)ncnc32)[C@H](O)[C@@H]1O [9c, (2R,3R,4S,5R)-2-(6-(benzylamino)-9H-purin-9-yl)-5-(hydroxymethyl)tetrahydrofuran-3,4-diol]
effect on TcPINK1 kinase activity (covalent inhibition) (TcPINK1): unlikely to be PINK1 covalent inhibitors | activation of PINK1 as judged by parkin Ser65 phosphorylation (PINK1 [1]): low level activation of PINK1 | ubiquitin Ser65 phosphorylation after pre-treatment followed by valinomycin, compared to valinomycin alone ([2]; 50 μM 24 h, 50 nM valinomycin for 5 h): significant suppression of ubiquitin Ser65 phosphorylation | ubiquitin Ser65 phosphorylation, compound alone ([2]; 50 μM, 24 h): increased phosphorylation

OC[C@H]1O[C@@H](n2cnc3c(NCc4ccco4)ncnc32)[C@H](O)[C@@H]1O [kinetin riboside, N^6-(2-furanylmethyl) adenosine]
effect on TcPINK1 kinase activity (covalent inhibition) (TcPINK1): unlikely to be PINK1 covalent inhibitors | activation of PINK1 as judged by parkin Ser65 phosphorylation (PINK1 [1]): low level activation of PINK1 | CCCP-independent activation of PINK1 in cells, compared to kinetin (PINK1 [3]): more potent CCCP-independent activation of PINK1 | prevention of membrane potential collapse caused by niclosamide and CCCP [4]: did not prevent the membrane potential collapse | prevention of OPA1 cleavage by pre-treatment (OPA1): did not prevent this effect
